Consider one compound from patent publication EP4667463A1, “DOMIDE MOLECULAR GLUE DERIVATIVE AND USE THEREOF” (CSPC Megalith Biopharmaceutical Co., Ltd., priority 2023, dated 2024).

The IC50 is the concentration that gives 50% inhibition. As a reminder, the CLint scaled is the capacity of the preparation to metabolise the compound, expressed as a volume cleared per time. As a reminder, the half-life is the time needed for the level to fall by half in the phase considered. A lower half-life goes with rapid decline.

Data set [1] relates to HL-60. Description: In vitro anti-tumor activity of molecular glue compounds, CellTiter-Lumi cell viability assay. Type of data set: cell-based. The note with it: Homo sapiens; HL-60 cells, 96 h incubation; read-out: Cell inhibitory activity (IC50 values) HL-60. The protocol:
(§1) Different tumor cells were all commercially available and used for evaluating the anti-tumor inhibitory activity of the compounds of the present disclosure. Various tumor cells were cultured until the cell confluency reached 80%-90%, with cell viability above 90% as determined by trypan blue exclusion. Then, the cells were plated. Specifically, after cell density optimization, 100 µL of each of the cell suspensions of HL-60 and SK-BR-3 cells (cell density: 3000 cells/well), Romas cells (cell density: 6000 cells/well), NCI-H929 cells (cell density: 4000 cells/well), and NCI-H82 cells (cell density: 5000 cells/well) was plated in a BeyoGold™ ultra-low attachment black clear-bottom 96-well plate (Cat. No.: FULA965-24pcs), and the plate was incubated overnight. The next day, after the adherent cells were adhered to the wall and suspension cells requiring aggregation were aggregated, 50 µL of culture medium was aspirated from each well of the 96-well plate. Then, the compounds diluted with the corresponding culture media were added. Specifically, the compounds were serially diluted at a 5-fold gradient starting from the highest concentration of 1 µM, with a final DMSO concentration of 1%o, and the test compounds were then added to the cell culture plate. The plate was incubated in an incubator at 37 °C with 5% carbon dioxide for 96 h. Before measurement, the CellTiter-Lumi™ luminescent cell viability assay reagent was equilibrated to room temperature in the dark. Then, 50 µL of the CellTiter-Lumi™ (Cat. No.: C0065XL) cell viability assay reagent was added to each well of the 96-well plate. The plate was shaken in the dark on a shaker at 300 rpm for 10 min to ensure complete cell lysis. After the reaction was completed, the luminescence was measured on a multi-mode microplate reader. The cell inhibition rate was determined according to the luminescence. Then, a cell viability curve was generated by Graphpad Prism 8.0, and the IC50 values were calculated. The compounds of the present disclosure were tested for activity by the method described above. Table 1. Cell inhibitory activity (IC50 values)

Data set [2] relates to NCI-H82. Described as above. In kind it is cell-based. The conditions noted are these: Homo sapiens; NCI-H82 cells, 96 h incubation; read-out: Cell inhibitory activity (IC50 values) NCI-H82. On the procedure:
as §1

Data set [3] has as its system NCI-H929. The description is as above. In kind it is cell-based. The conditions noted are these: Homo sapiens; NCI-H929 cells, 96 h incubation; read-out: Cell inhibitory activity (IC50 values) NCI-H929. On the procedure:
as §1

Data set [4] has as its system Romas. The data set is described as above. The conditions noted are these: Romas cells, 96 h incubation; read-out: Cell inhibitory activity (IC50 values) Romas. Type of data set: cell-based. The protocol:
as §1

The test system of data set [5] is SK-BR-3. The data set is described as above. Type of data set: cell-based. The note with it: Homo sapiens, SK-BR-3 cells. On the procedure: as §1
A short description of data set [6]: in vitro. The note with it: mouse, liver microsomes. Background: Liver microsomes are a subcellular fraction often used to study metabolism.
Method: (§2) The final concentration of the substrate in the incubation system was 1 µM, and the incubation time was 60 min. Sampling was performed at 0 min, 5 min, 15 min, 30 min, and 60 min. The reaction was stopped with glacial acetonitrile containing an internal standard (testosterone-d3 at a concentration of 10 ng/mL). Verapamil was used as a positive control. […] The natural logarithm of the remaining percentage was subjected to linear fitting with time to determine the elimination rate constant (k).
A short description of data set [7]: Metabolic stability in liver microsomes. The conditions noted are these: Human liver microsomes, after 60 min of incubation.
Method: as §2
Data set [8] in a line: Metabolic stability in liver microsomes. The note with it: Dog liver microsomes, after 60 min of incubation.
Method: as §2

Like-named read-outs stand apart in the source and are kept apart here.

Consider `O=C1CCC(N2Cc3cc(CNC(=O)Nc4ccc(CCCOC5CCCNC5)c(Cl)c4)ccc3C2=O)C(=O)N1` (stereo not shown) [Compound B19], for which the IC50 in data set [1] is < 10 nM; in data set [2] it was 10 to 50 nM; in data set [3], < 10 nM; in data set [4], < 10 nM; in data set [5] (96 h incubation, read-out: Cell inhibitory activity (IC50 values) SK-BR-3), < 10 nM; in data set [5] (read-out: SK-BR-3 IC50), 3.62 nM. Further, the intrinsic clearance (CLint scaled) at 1 µM in data set [6] was determined as 17 mL/min/kg. Also, the half-life at 1 µM in data set [6] is 5.48 h. Also, the “Parent drug remaining %” value was 80.5% in data set [7] and 118% in data set [8].
